From patent USRE40594E1, “Inhibitors of the bitter taste response” (Mount Sinai School of Medicine of New York University, priority 1998, dated 2008)
“Also recorded” adds a separate entry of the source.

How the values were obtained:
[1] = tested on: glossopharyngeal nerve responses of C57BL/6J mice; assay: Glossopharyngeal nerve recording on lingual stimulation with tastants; assay type: in vivo; conditions: inhibitor 0.1 mM
Method: Nerve Recording. Glossopharyngeal nerve responses were recorded from male C57BL/6J mice as previously described (Ninomiya, Y., et al., 1997, Am. J. Physiol. (London) 272:R1002-RI006). Each mouse was anesthetized with intraperitoneal injection of sodium pentobarbital (40-50 mg/kg) and maintained at a surgical level of anesthesis with supplemental injections of the drug. The trachea was cannulated, and the mouse was then fixed in the supine position with a head holder to allow dissection of the glossopharyngeal nerve. The hypoglossal nerve was transected bilaterally to prevent inadvertent tongue movements. The right glossopharyngeal nerve was exposed by removal of the digastric muscle and posterior horn of the hyoid bone. The glossopharyngeal nerve was then dissected free from underlying tissues and cut near its entrance to the posterior foramen lacerum. The entire nerve was placed on a silver wire electrode for whole nerve recording. An indifferent electrode was positioned nearby in the wound. […] Whole nerve responses were integrated by using an RMS-DC converter (Hendrick, Tallahassee, Fla.) with a time constant of 0.5 s. For chemical stimulation of the circumvallate and foliate papillae, an incision was made on each side of the animal's face from the comer of the mouth to just above the angle of the jaw, the papillae were exposed, and their trenches opened via slight tension applied through a small suture sewn in the tip of the tongue. Tastant solutions were delivered to the tongue by gravity flow, and flowed over the tongue for a controlled period. The stability of each preparation was monitored by the periodic application of 0.1 M NH4Cl. A recording was considered to be stable when the 0.1 M NH4Cl response magnitudes at the beginning and end of each stimulation series deviated by no more than 15%. Only responses from stable recordings were used in the data analysis. In the analysis of whole nerve responses, the magnitudes of the integrated response at 20, 25, 30, 35. and 40 s after stimulus onset were measured and averaged to generate tonic responses: the tonic response represents the sustained nerve response to continuous tastant stimulation of taste receptor cells. The relative tonic response for each stimulus was obtained by normalization to the response from 0.1 M NH4Cl (the tonic response of NH4Cl was defined as 1.0). Student's t test was used for statistical analysis.

[2] = tested on: bovine taste receptor cell membranes (taste receptors) with transducin; assay: G protein activation assay (trypsin sensitivity): activation of transducin by bitter tastant plus taste membranes; assay type: biochemical, Bovine (Bos primigenius)
Source text: Taste receptor is contacted with gustducin or transducin and tastant, in the presence or absence of test inhibitor, under conditions suitable for activation of the G-protein present. […] In specific non-limiting embodiments, a subunits of transducin or gustducin may be combined with βγ subunits prior to this step, as set forth above. To the reaction mixture comprising taste receptors and gustducin or transducin, test inhibitor and/or bitter tastant may be added, and the resulting solution incubated to permit interaction of the elements.
In preferred embodiments, activation is assessed by a trypsin digestion assay. […] In a specific, non-limiting example, to perform a trypsin digestion assay according to the invention, TPCK-treated trypsin (1:25 trypsin to total protein in the reaction mixture) may be added, and the digestion may be performed at room temperature for about 15 minutes and stopped by adding soybean trypsin inhibitor (6:1 mol/mol inhibitor to trypsin). […] The separated polypeptides may then be transferred by electro-blotter to a poly (vinylidene difluoride) membrane blocked by the addition of 5% BLOTTO [50 mM Tris-HCI, pH 7.4/100 mM NaCl/5% nonfat dry milk], (30 min). G-protein peptides may then be visualized by binding of antibody directed toward transducin or gustducin, followed, for example, by binding of a detectably labeled secondary antibody. If a horseradish peroxidase-labeled secondary antibody is used, binding may be visualized by developing with bicinchoninic acid staining reagents and exposure to x-ray film.
G Protein Activation Assays. Bovine (Bos primigenius) tongues were collected fresh from a local slaughterhouse and transported on ice to the laboratory. Circumvallate papillae were hand dissected, frozen in liquid nitrogen, and stored at −80° C. until use. […] The pelleted membranes were rinsed twice, resuspended in homogenization buffer lacking protease inhibitors, and further homogenized by 20 passages through a 25-gauge needle. Aliquots were either flash frozen or stored on ice until use. […] The separated polypeptides were transferred by electro-blotter to a poly (vinylidene difluoride) membrane, which was blocked by the addition of 5% BLOTTO [50 mM Tris-HCI, pH 7.4/100 mM NaCl/5% nonfat dry milk], (30 min), then transducin peptides were visualized by binding of transducin antiserum and horseradish peroxidase-labeled goat anti-rabbit secondary antibody, followed by developing with bicinchoninic acid staining reagents from Bio-Rad and exposure to x-ray film.
Chemicals. All bitter tastant and buffer chemicals were of the highest purity available and were purchased either from Sigma or Boehringer Mannheim, unless otherwise noted. […] The rabbit polyclonal antitransducin antibody was a kind gift of Mel Simon and John Watson (California Institute of Technology, Pasadena, Calif.).

Nc1nc2c(ncn2[C@@H]2O[C@H](COP(=O)(O)O)[C@@H](O)[C@H]2O)c(=O)[nH]1 [GMP, reference compound]
inhibition of glossopharyngeal nerve responses to atropine ([1]; 1.0 mM ATR, FIGS. 4A-C): had no effect | inhibition of glossopharyngeal nerve responses to sparteine ([1]; 1.0 mM SPA, FIGS. 4A-C, 4I (P<0.001)): had no effect | inhibition of glossopharyngeal nerve responses to strychnine ([1]; 1.0 mM STR, FIGS. 4A-C): had no effect | inhibition of glossopharyngeal nerve responses to DEN ([1]; 5.0 mM DEN, FIGS. 4A-C): had no effect | inhibition of glossopharyngeal nerve responses to QUI ([1]; QUI 0.1 and 1.0 mM, FIGS. 4D-F): had no effect | inhibition of in vitro activation of transducin (G-protein) by taste membranes plus bitter compounds, summary statement ([2]; DEN, QUI and other bitter compounds, concentrations not given): did not | inhibition of taste membrane activation of transducin in response to other bitter tastants (than DEN) ([2]; concentrations not given): did not inhibit | inhibition of activation of transducin by DEN plus bovine taste receptor membranes ([2]; inhibitor 0.25, 0.5, 1.25, 2.5, 5.0 mM, DEN 5.0 mM, shift from 32-kDa to 23-kDa fragments, FIG. 1A/1E): does not inhibit; also recorded: did not inhibit
